In ChEMBL document CHEMBL1201862, “PubChem BioAssay data set” (2004):
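The compound was tested at five concentrations on cells cultured in 96-well plates, with a 48-hour exposure period. Here, GI50 denotes the concentration required for 50% inhibition of growth.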 Calls of active or inactive are those of the source. Cut-off read from the data, not from the text of the source: active = GI50 up to about 1.1 µM and inactive = higher.

Legend:
Test in all cases: NCI tumour cell line growth inhibition, 48 h
SF-268 = test system: SF-268
MCF7 = test system: MCF7
SNB-19 = test system: SNB-19
SNB-75 = test system: SNB-75
NCI-H460 = test system: NCI-H460
UACC-62 = test system: UACC-62
MDA-N = test system: MDA-N
OVCAR-5 = test system: OVCAR-5
U-251 = test system: U-251
HT-29 = test system: HT-29
Hs-578T = test system: Hs-578T
XF498 = test system: XF498
SN12C = test system: SN12C
SW-620 = test system: SW-620
UACC-257 = test system: UACC-257
RPMI-8226 = test system: RPMI-8226
K562 = test system: K562
COLO 205 = test system: COLO 205
OVCAR-4 = test system: OVCAR-4
MDA-MB-435 = test system: MDA-MB-435

| SMILES | GI50 (SF-268) | GI50 (MCF7) | GI50 (SNB-19) | GI50 (SNB-75) | GI50 (NCI-H460) | GI50 (UACC-62) | GI50 (MDA-N) | GI50 (OVCAR-5) | GI50 (U-251) | GI50 (HT-29) | GI50 (Hs-578T) | GI50 (XF498) | GI50 (SN12C) | GI50 (SW-620) | GI50 (UACC-257) | GI50 (RPMI-8226) | GI50 (K562) | GI50 (COLO 205) | GI50 (OVCAR-4) | GI50 (MDA-MB-435) |
| --- | --- | --- | --- | --- | --- | --- | --- | --- | --- | --- | --- | --- | --- | --- | --- | --- | --- | --- | --- | --- |
| O=C1c2ccccc2C(=O)c2sc(Nc3ccc([N+](=O)[O-])cc3)nc21 | 6.93 µM (inactive) | 9.35 µM (inactive) | 10.3 µM (inactive) | 7.89 µM (inactive) | 10 µM (inactive) | 3.08 µM (inactive) | 2 µM (inactive) | 13.7 µM (inactive) | 3.85 µM (inactive) | 23.8 µM (inactive) | 1.32 µM (inactive) | 2.17 µM (inactive) | 3.19 µM (inactive) | 4 µM (inactive) | 4.9 µM (inactive) | 2.35 µM (inactive) | 2.17 µM (inactive) | 8.59 µM (inactive) | 4.4 µM (inactive) |  |
| COC(=O)Cc1cc(=O)oc2c1C(=O)CCC2 | > 100 µM (inactive) |  | > 100 µM (inactive) | 12.1 µM (inactive) | > 100 µM (inactive) | > 100 µM (inactive) |  | > 100 µM (inactive) | > 100 µM (inactive) | > 100 µM (inactive) |  | > 100 µM (inactive) | > 100 µM (inactive) | > 100 µM (inactive) | > 100 µM (inactive) | > 100 µM (inactive) | > 100 µM (inactive) | > 100 µM (inactive) | > 100 µM (inactive) |  |
| CCN(N=O)C1C2(CCCC2)NC(=O)C12CCCC2 (stereo not drawn) | > 100 µM (inactive) |  | > 100 µM (inactive) | > 100 µM (inactive) | > 100 µM (inactive) | > 100 µM (inactive) |  | > 100 µM (inactive) | > 100 µM (inactive) | > 100 µM (inactive) |  | > 100 µM (inactive) | > 100 µM (inactive) | > 100 µM (inactive) | > 100 µM (inactive) | > 100 µM (inactive) | > 100 µM (inactive) |  | > 100 µM (inactive) |  |
| O=c1[nH]nc2ccccc2c1Cc1ccccc1 | > 100 µM (inactive) |  | > 100 µM (inactive) | 96.6 µM (inactive) | > 100 µM (inactive) | > 100 µM (inactive) |  | > 100 µM (inactive) | > 100 µM (inactive) | > 100 µM (inactive) |  | > 100 µM (inactive) | > 100 µM (inactive) | > 100 µM (inactive) | > 100 µM (inactive) | > 100 µM (inactive) | > 100 µM (inactive) | > 100 µM (inactive) | > 100 µM (inactive) |  |
| Nc1cc(O)nc(SC2=NC(N)CC(O)C2)n1 (stereo not drawn) |  |  | > 100 µM (inactive) | > 100 µM (inactive) | > 100 µM (inactive) | > 100 µM (inactive) |  | > 100 µM (inactive) | > 100 µM (inactive) | > 100 µM (inactive) |  | > 100 µM (inactive) | > 100 µM (inactive) | 42.5 µM (inactive) | > 100 µM (inactive) | > 100 µM (inactive) | > 100 µM (inactive) | > 100 µM (inactive) | > 100 µM (inactive) |  |
| CC1=C(C(=O)Nc2cccc(C(F)(F)F)c2)C(c2ccc(O)cc2)C(C(=O)Nc2cccc(C(F)(F)F)c2)=C(C)N1 | 26.5 µM (inactive) |  | 32.2 µM (inactive) | 17.2 µM (inactive) | 16.7 µM (inactive) |  |  | 24.9 µM (inactive) | 17.1 µM (inactive) | 16 µM (inactive) |  | 2.61 µM (inactive) | > 10 µM (inactive) | 19.4 µM (inactive) | 17.7 µM (inactive) | 7.35 µM (inactive) | 15 µM (inactive) | 13.9 µM (inactive) | 14.8 µM (inactive) |  |
| CC(=O)C1C(=O)N(C(C)C)C[C@@H]2CCC(=O)C[C@H]12 (stereo partly drawn) | > 100 µM (inactive) |  | > 100 µM (inactive) | > 100 µM (inactive) | > 100 µM (inactive) | > 100 µM (inactive) |  |  | > 100 µM (inactive) | > 100 µM (inactive) |  | > 100 µM (inactive) | > 100 µM (inactive) | > 100 µM (inactive) | > 100 µM (inactive) | > 100 µM (inactive) | > 100 µM (inactive) | > 100 µM (inactive) | > 100 µM (inactive) |  |
| COc1cc(O)c2c(c1)C(=O)C1=C(C2=O)C(O)C[C@@](C)(O)C1 (stereo partly drawn) | 2.01 µM (inactive) |  | 4.34 µM (inactive) | 3.41 µM (inactive) | 1.92 µM (inactive) | 1.37 µM (inactive) |  | 9.95 µM (inactive) | 2.49 µM (inactive) | 0.475 µM (active) |  | 1.9 µM (inactive) | 1.29 µM (inactive) | 0.441 µM (active) | 0.335 µM (active) | 1.86 µM (inactive) | 0.457 µM (active) | 0.264 µM (active) | 1.51 µM (inactive) |  |
| O=C1NC2C(=CC(O)C(O)C2O)c2cc3c(cc21)OCO3 (stereo not drawn) | 0.171 µM (active) | 0.338 µM (active) | 0.244 µM (active) | 0.568 µM (active) | 0.194 µM (active) | 0.421 µM (active) | 0.0832 µM (active) | 0.94 µM (active) | 0.218 µM (active) | 0.345 µM (active) | 0.0794 µM (active) | 0.171 µM (active) | 0.301 µM (active) | 0.335 µM (active) | 0.695 µM (active) | 0.414 µM (active) | 0.34 µM (active) | 0.2 µM (active) | 0.338 µM (active) | 0.0951 µM (active) |
| O=C(c1ccc(Cl)cc1)N(C(=S)N1CCN(c2ccccn2)CC1)C1CCCCC1 | 27.3 µM (inactive) |  | 96.4 µM (inactive) | > 100 µM (inactive) | 30 µM (inactive) | > 100 µM (inactive) |  | > 100 µM (inactive) | 37.2 µM (inactive) | 55.3 µM (inactive) |  | 8.26 µM (inactive) | > 100 µM (inactive) | 83.6 µM (inactive) | 30.8 µM (inactive) | 25.5 µM (inactive) | 37.6 µM (inactive) | 44.4 µM (inactive) | > 100 µM (inactive) |  |
